# Laboratory results published in ChEMBL document CHEMBL1649315, “Extended-spectrum cephalosporinase in Acinetobacter baumannii” (Antimicrob Agents Chemother, 2010).
# Key:
# [1] = system: Acinetobacter baumannii; assay: Antimicrobial activity against Acinetobacter baumannii beta-lactamase by Etest method; type: functional
# [2] = system: Escherichia coli; assay: Antimicrobial activity against Escherichia coli TOP10 harboring pADC-11 plasmid with entire blaAmpC gene by Etest method; type: functional
# [3] = system: Escherichia coli; assay: Antimicrobial activity against Escherichia coli TOP10 harboring pADC-33 plasmid by Etest method; type: functional
# [4] = system: Escherichia coli; assay: Antimicrobial activity against Escherichia coli TOP10 harboring pADC-33 plasmid with entire blaAmpC gene by Etest method; type: functional
# [5] = system: Acinetobacter baumannii; assay: Antimicrobial activity against Acinetobacter baumannii expressing ESAC beta-lactamase by Etest method; type: functional
# [6] = system: Escherichia coli; assay: Antimicrobial activity against Escherichia coli TOP10 harboring pADC-11 plasmid by Etest method; type: functional
# [7] = system: Escherichia coli; assay: Antimicrobial activity against Escherichia coli TOP10 harboring pADC-11 plasmid carrying entire blaAmpC gene with alanine residue insertion at 215 position by Etest method; type: functional
# [8] = system: Escherichia coli; assay: Antimicrobial activity against Escherichia coli TOP10 harboring pADC-50 plasmid by Etest method; type: functional
# [9] = system: Escherichia coli; assay: Antimicrobial activity against Escherichia coli TOP10 harboring pADC-33 plasmid with entire blaAmpC gene with alanine residue deletion at 215 position by Etest method; type: functional
# [10] = system: Acinetobacter baumannii; assay: Antimicrobial activity against Acinetobacter baumannii CIP70.10 by Etest method; type: functional
# [11] = system: Escherichia coli; assay: Antimicrobial activity against Escherichia coli TOP10 harboring pADC-33 plasmid carrying entire blaAmpC gene with alanine residue deletion at 215 position and R210P substitution by Etest method; type: functional
# [12] = system: Acinetobacter baumannii; assay: Ratio of Kcat to Km for Acinetobacter baumannii ADC-33 beta-lactamase to Kcat to Km for Acinetobacter baumannii ADC-11 beta-lactamase
# [13] = system: Acinetobacter baumannii; assay: Antimicrobial activity against Acinetobacter baumannii AYE expressing VEB-1 gene by Etest method; type: functional
# [14] = system: Acinetobacter baumannii; assay: Antimicrobial activity against Acinetobacter baumannii KI by Etest method; type: functional
# [15] = target: ADC-11 (Acinetobacter baumannii, UniProt D6NSM8); assay: Activity of Acinetobacter baumannii ADC-11 beta-lactamase
# [16] = target: Beta-lactamase ADC-33 (Acinetobacter baumannii, UniProt B2ZTR6); assay: Activity of Acinetobacter baumannii ADC-33 beta-lactamase
# [17] = system: Escherichia coli; assay: Antimicrobial activity against Escherichia coli TOP10 harboring pADC-11 plasmid carrying entire blaAmpC gene with alanine residue insertion at 215 position and R210P substitution by Etest method; type: functional
# [18] = system: Acinetobacter baumannii; assay: Ratio of Kcat to Ki for Acinetobacter baumannii ADC-33 beta-lactamase to Kcat to Ki for Acinetobacter baumannii ADC-11 beta-lactamase
# [19] = system: Escherichia coli; assay: Antimicrobial activity against Escherichia coli TOP10 harboring pTOPO plasmid by Etest method; type: functional
SMILES,MIC [1] [µg/mL],MIC [2] [µg/mL],MIC [3] [µg/mL],MIC [4] [µg/mL],MIC [5] [µg/mL],MIC [6] [µg/mL],MIC [7] [µg/mL],MIC [8] [µg/mL],MIC [9] [µg/mL],MIC [10] [µg/mL],MIC [11] [µg/mL],kcat/Km [12] [M⁻¹ s⁻¹],MIC [13] [µg/mL],MIC [14] [µg/mL],Ki [15] [nM],Ki [16] [nM],MIC [17] [µg/mL],kcat/Km [18] [M⁻¹ s⁻¹],MIC [19] [µg/mL]
CO/N=C(\C(=O)N[C@@H]1C(=O)N2C(C(=O)[O-])=C(C[N+]3(C)CCCC3)CS[C@H]12)c1csc(N)n1,2,0.125,0.125,1,32,0.032,0.5,0.032,0.25,1,0.125,2e+07,> 256,256,–,–,–,–,–
CC(=O)OCC1=C(C(=O)O)N2C(=O)[C@@H](NC(=O)Cc3cccs3)[C@H]2SC1,–,–,–,–,–,–,–,–,–,–,–,500000,–,–,–,–,–,–,–
CC1(C)S[C@@H]2[C@H](NC(=O)Cc3ccccc3)C(=O)N2[C@H]1C(=O)O,–,–,–,–,–,–,–,–,–,–,–,1.3e+06,–,–,–,–,–,–,–
CC1(C)S[C@@H]2[C@H](NC(=O)[C@H](N)c3ccccc3)C(=O)N2[C@H]1C(=O)O,–,–,–,–,–,–,–,–,–,–,–,500000,–,–,–,–,–,–,–
O=C(Cc1cccs1)N[C@@H]1C(=O)N2C(C(=O)[O-])=C(C[n+]3ccccc3)CS[C@H]12,–,–,–,–,–,–,–,–,–,–,–,800000,–,–,–,–,–,–,–
C[C@H]1[C@H](NC(=O)/C(=N\OC(C)(C)C(=O)O)c2csc(N)n2)C(=O)N1S(=O)(=O)O [AZTREONAM],12,2,8,256,> 256,0.094,16,–,6,8,2,–,> 256,256,3000,7,256,–,–
CO/N=C(\C(=O)N[C@@H]1C(=O)N2C(C(=O)O)=C(COC(C)=O)CS[C@H]12)c1csc(N)n1 [CEFOTAXIME],–,8,128,> 256,–,0.5,256,0.5,16,8,8,–,> 256,> 256,2500,500,> 256,2e+07,0.047
CO[C@@]1(NC(=O)Cc2cccs2)C(=O)N2C(C(=O)O)=C(COC(N)=O)CS[C@@H]21 [CEFOXITIN],–,–,–,–,–,–,–,–,–,–,–,–,–,–,500,100,–,1e+06,–
CO/N=C(\C(=O)N[C@@H]1C(=O)N2C(C(=O)[O-])=C(C[n+]3cccc4c3CCC4)CS[C@H]12)c1csc(N)n1 [CEFPIROME],4,0.125,0.5,4,128,0.032,2,0.047,0.5,2,0.125,1.25e+07,> 256,> 256,–,–,8,–,0.023
CC(C)(O/N=C(\C(=O)N[C@@H]1C(=O)N2C(C(=O)[O-])=C(C[n+]3ccccc3)CS[C@H]12)c1csc(N)n1)C(=O)O [CEFTAZIDIME],–,8,> 256,> 256,–,0.5,> 256,0.5,16,2,8,1.5e+08,> 256,> 256,–,–,> 256,–,0.125
CO/N=C(\C(=O)N[C@@H]1C(=O)N2C(C(=O)O)=C(COC(N)=O)CS[C@H]12)c1ccco1 [CEFUROXIME],–,> 256,> 256,> 256,–,128,> 256,64,> 256,32,> 256,–,> 256,> 256,–,–,> 256,–,2
C[C@@H](O)[C@H]1C(=O)N2C(C(=O)O)=C(SCCNC=N)C[C@H]12 [IMIPENEM ANHYDROUS],–,0.38,0.25,0.5,–,0.19,0.38,–,0.5,0.25,0.25,800000,1,2,–,–,–,–,0.125
C[C@@H](O)[C@H]1C(=O)N2C(C(=O)O)=C(S[C@@H]3CN[C@H](C(=O)N(C)C)C3)[C@H](C)[C@H]12 [MEROPENEM],–,0.032,0.023,0.032,–,0.023,0.032,0.023,0.032,0.25,0.032,–,1,2,–,–,0.032,–,0.023
